We go through twelve compounds from patent US20230105212A1, “BIPHENYL DERIVATIVE INHIBITOR, PREPARATION METHOD THEREFOR AND USE THEREOF” (SHANGHAI HANSOH BIOMEDICAL CO., LTD., priority 2020, published 2023).

Assay [1] concerns the target T1, human PD-1/PD-L1 binding (Homo sapiens, UniProt Q9NZQ7).
T1 construct: PD-L1-His protein (19 to 238 amino acids) (Abcam #ab167713); purchased Abcam (PD-L1-His); R&D (PD-1-Fc) ab167713; 1086-PD
Kind of assay: Inhibition of human PD-1/PD-L1 binding (TR-FRET/HTRF). Conditions: TR-FRET, PD-L1-His and PD-1-Fc; read-out: PD-1/PD-L1 binding IC50. From the text: Test Embodiment 1: Test of Inhibitory Effect of the Compounds of the Present Disclosure on Human PD-1/PD-L1 Binding
Experimental purpose: The purpose of this test embodiment was to measure the inhibitory activity of the compounds on human PD-1/PD-L1 binding.
Experimental reagents: Binding Domain diluent buffer was purchased from Cisbio Company, Cat. No.: 62DLBDDF; MAb Anti-6HIS Eu cryptate Gold was purchased from Cisbio Company with the article number of 61HI2KLA; PAb Anti Human IgG-XL665 was purchased from Cisbio Company with the article number of 61HFCXLB; PD-L1-His protein was purchased from Abcam Company with the article number of ab167713; PD-1-Fc protein was purchased from R&D Company with the article number of 1086-PD; Detection buffer was purchased from Cisbio Company with the article number of 62SDBRDD; 384-well plate was purchased from PerkinElmer Company with the article number of 6007290.
Experimental method: In order to test the inhibitory activity of the compounds on human PD-1/PD-L1 binding, the method of time-resolved fluorescence resonance energy transfer (TR-FRET) was used in this experiment to test the inhibition of the compounds on human PD-1/PD-L1 binding, and the half inhibitory concentration IC50 of inhibitory activity of the compounds on human PD-1/PD-L1 binding was obtained.
This experiment was performed in a 384-well plate with a total reaction volume of 20 μL. Compounds were diluted to different concentrations (10 μM or 1 μM starting, 3-fold dilution, 11 doses) using assay buffer Binding Domain diluent buffer (Cisbio #62DLBDDF), then PD-L1-His protein (19 to 238 amino acids) (Abcam #ab167713) was diluted to 10 nM with assay buffer, and PD-1-Fc protein (25 to 167 amino acids) (R&D #1086-PD) was diluted to 20 nM with assay buffer; the compound, PD-L1 protein and PD-1 protein were added to a 384-well plate respectively, and the total volume was 10 μL, then centrifuged at 1000 rpm for 1 minute to mix well, and incubated for 60 minutes at room temperature. Then 10 μL of a mixed solution of MAb Anti-6HIS Eu cryptate Gold (Cisbio #61HI2KLA) and PAb Anti Human IgG-XL665 (Cisbio #61HFCXLB) diluted by HTRF Detection buffer was added to each well, and centrifuged at 1000 rpm for 1 minute to mix well. The reaction was carried out at room temperature for 3 hours or at 4° C. overnight, then a microplate reader (BioTek Synergy H1) was put into for reading; the excitation wavelength was 340 nm, and the emission wavelengths were 620 nm and 665 nm.
The ratio of fluorescence readings at 620 nm and 665 nm (665 nm/620 nm) was calculated, and the inhibition rate was calculated.

The target of assay [2] is T2, PD-L1 protein on the surface of MC38-hPDL1 tumor cells (Homo sapiens, UniProt Q9NZQ7).
T2 construct: expressed in transfected cells; host or cells: MC38-hPDL1 (mouse colon cancer cells)
T2 sequence (Q9NZQ7 19-290): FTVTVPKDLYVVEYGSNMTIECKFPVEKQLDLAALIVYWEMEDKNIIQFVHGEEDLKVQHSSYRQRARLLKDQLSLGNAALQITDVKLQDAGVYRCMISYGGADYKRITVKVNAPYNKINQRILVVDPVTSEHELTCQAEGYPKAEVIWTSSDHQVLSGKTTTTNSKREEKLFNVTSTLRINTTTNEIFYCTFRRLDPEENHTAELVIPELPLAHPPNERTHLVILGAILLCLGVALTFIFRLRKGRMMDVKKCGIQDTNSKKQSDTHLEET
Put plainly: Induction of endocytosis of PD-L1 on the surface of tumor cells (flow cytometry). Type of assay: cell-based. Conditions: 16 hours incubation; for Emax: MC38-hPDL1 cells, read-out: MC38 maximum endocytosis rate; for IC50: inducing endocytosis of PD-L1, MC38-hPDL1 cells, read-out: MC38 IC50. From the text:
Test Embodiment 2. Test of the Activity of Compounds of the Present Disclosure on Inducing the Endocytosis of PD-L1 Protein on the Surface of Tumor Cells
Experimental purpose: The purpose of this test embodiment was to test the activity of the compound on inducing the endocytosis of PD-L1 on the surface of tumor cells.
Experimental method: In order to test the activity of the compound on inducing the endocytosis of PD-L1, in this experiment, the activity of the compound on inducing the endocytosis of PD-L1 was tested by detecting the change degree of PD-L1 on the tumor cell surface with fluorescently labeled anti-PD-L1 antibody, and the IC50 of activity of the compound on inducing the endocytosis of PD-L1 was obtained.
The mouse colon cancer cells MC38-hPDL1 with high expression of hPD-L1 were collected, and adjusted to a suitable density and plated in a 24-well plate, and placed in a 37° C., 5% CO2 incubator to adhere overnight. Compounds were prepared into different concentrations by medium and added to a 24-well plate, and a vehicle control well was set up. After the cells were incubated in a 37° C., 5% CO2 incubator for 16 hours, the 24-well plate was taken out, and MC38-hPDL1 cells with different treatments in the plate were collected. After the cells were washed once with FACS buffer (PBS containing 0.5% BSA), and the cells were prepared to an appropriate density with FACS buffer. PE Mouse Anti-Human CD274 antibody (BD Pharmingen #557924) was added, and the cells were shaken at room temperature and incubated for 30 minutes without light, then the cells were washed twice with FACS buffer, resuspended in 100 μL of PBS, and a flow cytometer was used to detect the fluorescent signal on the cell surface, and the isotype control was set as a negative control.
The endocytosis rate of the compounds was calculated from the fluorescence signals of different treatment groups, and the compound concentration and endocytosis rate were fitted by nonlinear regression using GraphPad Prism software, and IC50 values were obtained, as shown in Table 2.
For orientation: A flow cytometer gives signals particle by particle.

T1 sequence (Q9NZQ7 19-238): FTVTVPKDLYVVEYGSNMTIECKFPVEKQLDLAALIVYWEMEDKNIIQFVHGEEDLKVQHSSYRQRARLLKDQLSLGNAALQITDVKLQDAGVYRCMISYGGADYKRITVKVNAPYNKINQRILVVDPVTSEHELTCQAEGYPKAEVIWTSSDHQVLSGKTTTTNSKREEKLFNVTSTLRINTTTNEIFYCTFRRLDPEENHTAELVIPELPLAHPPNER

For `COc1cc(NCc2cnc(C(=O)Nc3cccc(-c4cccc(NC(=O)c5nc6c(n5C)CCNC6)c4Cl)c3Cl)cc2OC)ccn1` [Embodiment 81, N-(2,2′-Dichloro-3′-(4-methoxy-5-(((2-methoxypyridin-4-yl)amino)methyl)picolinamido)-[1,1′-biphenyl]-3-yl)-1-methyl-4,5,6,7-tetrahydro-1H-imidazo[4,5-c]pyridine-2-carboxamide], in assay [1], the IC50 was 2.4 nM. For the same compound, in assay [2], the Emax was 86% and the IC50 came out at 5 nM.

`COc1cc(C(=O)Nc2cccc(-c3cccc(NC(=O)c4nc5c(n4C)CCN(C)C5)c3Cl)c2C)ncc1CN[C@H]1CCCNC1=O` [Embodiment 98, (S)—N-(2-Chloro-3′-(4-methoxy-5-(((2-carbonylpiperidin-3-yl)amino)methyl)picolinamido)-2′-methyl-[1,1′-biphenyl]-3-yl)-1,5-dimethyl-4,5,6,7-tetrahydro-1H-imidazo[4,5-c]pyridine-2-carboxamide]: the IC50 in assay [1] is 6.3 nM. In assay [2], the Emax was found to be 93% and the IC50 was 5.6 nM.

Take `COc1cc(C(=O)Nc2cccc(-c3cccc(NC(=O)c4nc5c(n4C)CCN(C)C5)c3Cl)c2C)ncc1CNC1CCOCC1` [Embodiment 35, N-(2-Chloro-3′-(4-methoxy-5-(((tetrahydro-2H-pyran-4-yl)amino)methyl)picolinamido)-2′-methyl-[1,1′-biphenyl]-3-yl)-1,5-dimethyl-4,5,6,7-tetrahydro-1H-imidazo[4,5-c]pyridine-2-carboxamide]: the figures for the IC50 in assay [1] and in assay [2] were 3.6 nM and 1.3 nM, respectively. Further, the Emax in assay [2] is 96%.

`COc1cc(C(=O)Nc2cccc(-c3cccc(NC(=O)c4nc5c(n4C)CCN(C)C5)c3Cl)c2C)ncc1CNC[C@@H]1CCC(=O)N1` [Embodiment 39, (S)—N-(2-Chloro-3′-(4-methoxy-5-((((5-carbonylpyrrolidin-2-yl)methyl)amino)methyl)picolinamido)-2′-methyl-[1,1′-biphenyl]-3-yl)-1,5-dimethyl-4,5,6,7-tetrahydro-1H-imidazo[4,5-c]pyridine-2-carboxamide]: the IC50 in assay [1] stood at 5 nM. In assay [2], the Emax was 97% and the IC50 worked out at 1.9 nM.

Consider `COc1cc(C(=O)Nc2cccc(-c3cccc(NC(=O)c4nc5c(n4C)CCN(C)C5)c3Cl)c2C)ncc1CNCCF` [Embodiment 18, N-(2-Chloro-3′-(5-(((2-fluoroethyl)amino)methyl)-4-methoxypicolinamido)-2′-methyl-[1,1′-biphenyl]-3-yl)-1,5-dimethyl-4,5,6,7-tetrahydro-1H-imidazo[4,5-c]pyridine-2-carboxamide], for which the IC50 in assay [1] came out at 2.4 nM; in assay [2], 1.5 nM. Moreover, in assay [2], the Emax amounted to 91%.

In the case of `COc1cc(NCc2cnc(C(=O)Nc3cccc(-c4cccc(NC(=O)c5nc6c(n5C)CCN(C)C6)c4Cl)c3Cl)cc2OC)ccn1` [Embodiment 2, N-(2,2′-Dichloro-3′-(4-methoxy-5-(((2-methoxypyridin-4-yl)amino)methyl)picolinamido)-[1,1′-biphenyl]-3-yl)-1,5-dimethyl-4,5,6,7-tetrahydro-1H-imidazo[4,5-c]pyridine-2-carboxamide], the IC50 in assay [1] came out at 5 nM. Besides, in assay [2], the Emax was 89% and the IC50 turned out to be 4.6 nM.

Take `COc1cc(C(=O)Nc2cccc(-c3cccc(NC(=O)c4nc5c(n4C)CCN(C)C5)c3Cl)c2C)ncc1CNC1(C)COC1` [Embodiment 99, N-(2-Chloro-3′-(4-methoxy-5-(((3-methyloxetan-3-yl)amino)methyl)picolinamido)-2′-methyl-[1,1′-biphenyl]-3-yl)-1,5-dimethyl-4,5,6,7-tetrahydro-1H-imidazo[4,5-c]pyridine-2-carboxamide]: the IC50 in assay [1] worked out at 4.4 nM. Also, in assay [2], the Emax turned out to be 91% and the IC50 is 3.9 nM.

Turning to `COc1nc(-c2cccc(-c3cccc(NC(=O)c4nc5c(n4C)CCN(C)C5)c3Cl)c2Cl)ccc1CN1CC2CC(C1)N2C(=O)CC#N` [Embodiment 208, N-(2,2′-Dichloro-3′-(5-((6-(2-cyanoacetyl)-3,6-diazabicyclo[3.1.1]heptan-3-yl)methyl)-6-methoxypyridin-2-yl)-[1,1′-biphenyl]-3-yl)-1,5-dimethyl-4,5,6,7-tetrahydro-1H-imidazo[4,5-c]pyridine-2-carboxamide], the IC50 in assay [1] stood at 9 nM. The Emax in assay [2] was found to be 81%.

For `COc1cc(NCc2cnc(C(=O)Nc3cccc(-c4cccc(NC(=O)c5nc6c(n5C)CCN(C)C6)c4Cl)c3C)cc2OC)ccn1` [Embodiment 1, N-(2-Chloro-3′-(4-methoxy-5-(((2-methoxypyridin-4-yl)amino)methyl)picolinamido)-2′-methyl-[1,1′-biphenyl]-3-yl)-1,5-dimethyl-4,5,6,7-tetrahydro-1H-imidazo[4,5-c]pyridine-2-carboxamide], in assay [1], the IC50 turned out to be 6.9 nM. In assay [2], the Emax is 88% and the IC50 was found to be 3.4 nM.

Take `COc1cc(C(=O)Nc2cccc(-c3cccc(NC(=O)c4nc5c(n4C)CCN(C)C5)c3Cl)c2C)ncc1CO` [Embodiment 49, N-(2-Chloro-3′-(5-(2-hydroxymethyl)-4-methoxypicolinamido)-2′-methyl-[1,1′-biphenyl]-3-yl)-1,5-dimethyl-4,5,6,7-tetrahydro-1H-imidazo[4,5-c]pyridine-2-carboxamide]: the IC50 in assay [1] was 5.1 nM. For the same compound, in assay [2], the Emax is 93% and the IC50 came to 10.7 nM.

With `COc1nc(C(=O)Nc2cccc(-c3cccc(NC(=O)c4nc5c(n4C)CCN(C)C5)c3Cl)c2C)ccc1CN[C@@H](C)CO` [Embodiment 43, (S)—N-(2-Chloro-3′-(5-(((1-hydroxypropan-2-yl)amino)methyl)-6-methoxypicolinamido)-2′-methyl-[1,1′-biphenyl]-3-yl)-1,5-dimethyl-4,5,6,7-tetrahydro-1H-imidazo[4,5-c]pyridine-2-carboxamide], in assay [1], the IC50 worked out at 4.1 nM.

On to `COc1cc(CN[C@@H]2CCOC[C@@H]2F)cnc1C(=O)Nc1cccc(-c2cccc(NC(=O)c3nc4c(n3C)CCN(C)C4)c2Cl)c1C` [Embodiment 109, N-(2-Chloro-3′-(5-((((3R,4R)-3-fluorotetrahydro-2H-pyran-4-yl)amino)methyl)-3-methoxypicolinamido)-2′-methyl-[1,1′-biphenyl]-3-yl)-1,5-dimethyl-4,5,6,7-tetrahydro-1H-imidazo[4,5-c]pyridine-2-carboxamide], for which, in assay [1], the IC50 was 4.7 nM.
